The values below come from EP0521310A2, “Solid dispersion tablets containing 1,4-dihydropyridine derivatives and process for the preparation thereof” (FUJIREBIO Inc., priority 1991, dated 1993).

A short description of this data set: thermal analysis (DSC) of solid dispersions, conversion to amorphous form. It counts as physicochemical. Here is the method: HPC and FRC8653, in the propotion of 1, 2, 3, 4 or 5 parts by weight of HPC based on one part by weight of FRC8653, were added to the mixed solvent of methanol/dichloromethane and dissolved, followed by removal of the solvent and drying. The samples obtained were subjected to thermal analysis (DSC).
Both HP55 (Shin-Etsu Chemical Co.) and FRC8653, in the proportion of 1, 2, 3, 4 or 5 parts by weight of HP55 based on one part by weight of FRC8653, were added to the mixed solvent of methanol/dichloromethane and dissolved, followed by removal of the solvent and drying in order to subject to thermal analysis (DSC). The amount of HP55 necessary to convert the FRC8653 into its amorphous form was 2 parts by weight or more per one part by weight of FRC8653.

Molecules are shown by their SMILES.

Turning to `COCCOC(=O)C1=C(C)NC(C)=C(C(=O)OC/C=C/c2ccccc2)C1c1cccc([N+](=O)[O-])c1` (racemic) [FRC8653, 2-methoxyethyl (E)-3-phenyl-2-propen-1-yl (+/-)-1,4-dihydro-2,6-dimethyl-4-(3-nitrophenyl)-3,5-pyridinedicarboxylate], under “Fig. 3”, the “amount of HPC required to convert FRC8653 into its amorphous form” value is recorded as ≥ 4 parts by weight per one part b. The “amount of HP55 necessary to convert the FRC8653 into its amorphous form” value (Fig. 6) was ≥ 2 parts by weight per one part b.
